Assay results reported in patent publication US9155302B2, “Active substance combinations” (priority 2005, dated 2015).

Columns and labels:
Botrytis cinerea = Botrytis cinerea test (in vitro)/microtitre plates; assay type: cell-based; conditions: 3 ppm, after 5 d
Protocol: (§1) The microtest is carried out in microtitre plates using potato dextrose broth (PDB) as liquid test medium. The active compounds are applied as technical-grade a.i., dissolved in acetone. A spore suspension of Botrytis cinerea is used for inoculation. After 5 days of incubation in the dark and with shaking (10 Hz), the transparency in each filled cavity of the microtitre plates is determined with the aid of a spectrophotometer.
(§2) 0% means an efficacy which corresponds to the growth in the controls, whereas an efficacy of 100% means that no fungal growth is observed.

Phaedon cochleariae = Phaedon cochleariae test, dipped cabbage leaves
Myzus persicae = Myzus persicae test, dipped cabbage leaves; assay type: in vivo; conditions: 100 ppm, after 6 d
Protocol: The determined kill rates are calculated using Colby's formula (see sheet 1).

Alternaria mali = Alternaria mali test (in vitro)/microtitre plates; assay type: cell-based; conditions: 3 ppm, after 4 d
Protocol: as §1, with “PDB)” for “(PDB)”, “Alternaria mali” for “Botrytis cinerea”, “4” for “5”
as §2

Plutella xylostella = Plutella xylostella test, dipped cabbage leaves; assay type: in vivo; conditions: after 6 d

With `Cc1nn(C)c(F)c1C(=O)Nc1ccccc1C(C)CC(C)C` (stereo not drawn) [(1-2), N-[2-(1,3-dimethylbutyl)phenyl]-5-fluoro-1,3-dimethyl-1H-pyrazole-4-carboxamide] the “Efficacy in % after d, found” value (Botrytis cinerea) was 16%, the “Kill rate in % after d, found” value (Phaedon cochleariae; 100 ppm, after 4 d) was 0% and the “Kill rate in % after d, found” value (Phaedon cochleariae; 100 ppm, after 6 d) was 0%. The “Kill rate in % after d, found” value (Myzus persicae) was 0% and the “Kill rate in % after d, found” value (Alternaria mali) was 48%.

With `CN/C(=N\[N+](=O)[O-])NCc1cnc(Cl)s1` [(2.1.1) clothianidin, clothianidin] the “Kill rate in % after d, found” value (Phaedon cochleariae; 0.8 ppm, after 6 d) was 0%, the “Kill rate in % after d, found” value (Alternaria mali) was 8% and the “Kill rate in % after d, found” value (Plutella xylostella; 20 ppm) was 20%.

For `O=[N+]([O-])NC1=NCCN1Cc1ccc(Cl)nc1` [(2.1.2) imidacloprid, imidacloprid], the “Efficacy in % after d, found” value (Botrytis cinerea) was 3%, the “Kill rate in % after d, found” value (Phaedon cochleariae; 0.8 ppm, after 6 d) was 40% and the “Kill rate in % after d, found” value (Plutella xylostella; 4 ppm) was 20%.

For `CNC(=O)Oc1cc(C)c(SC)c(C)c1` [(3.1.1) methiocarb, methiocarb], the “Kill rate in % after d, found” value (Myzus persicae) was 0%.

With `CS/C(C)=N\OC(=O)N(C)SN(C)C(=O)O/N=C(\C)SC` [(3.1.2) thiodicarb, thiodicarb] the “Kill rate in % after d, found” value (Phaedon cochleariae; 100 ppm, after 4 d) was 0%.

In the case of `N#Cc1nn(-c2c(Cl)cc(C(F)(F)F)cc2Cl)c(N)c1[S+]([O-])C(F)(F)F` (stereo not drawn) [(6.2.1) fipronil, fipronil], the “Kill rate in % after d, found” value (Myzus persicae) is reported as 65%.

For spinosad [(5.1.1) spinosad], the “Kill rate in % after d, found” value (Phaedon cochleariae; 0.8 ppm, after 6 d) was 80%.
